How the values were obtained:
Homo sapiens [1] = species: Homo sapiens; assay: Pharmacokinetic parameter in TB patient serum assessed as percentage of time the compound persisted above 5 mg/L at 500 mg/ kg TID; type: ADME, organism-based; design: dose 500 mg/ kg; settings: in vivo
Homo sapiens [2] = assay: Hepatotoxicity in TB patients assessed as jaundice at 3.7 g/kg/day measured after 87 days; type: toxicity, organism-based; settings: in vivo, 3700 mg/kg, 2088 h
Homo sapiens [3] = species: Homo sapiens; assay: Pharmacokinetic parameter in TB patient serum assessed as percentage of time the compound persisted above 10 mg/L at 500 mg/ kg TID; type: ADME, organism-based; design: dose 500 mg/ kg; settings: in vivo
Homo sapiens [4] = assay: Hepatotoxicity in TB patients assessed as abnormal flocculation at 3.7 g/kg/day measured after 87 days; type: toxicity, organism-based; settings: in vivo, 3700 mg/kg, 2088 h
[5] = Systemic clearance in TB patient serum at 500 mg/ kg TID; type: ADME, organism-based; design: dose 500 mg/ kg; settings: human
Homo sapiens [6] = assay: Pharmacokinetic parameter in TB patient serum assessed as percentage of time the compound persisted above 10 mg/L at 3000 mg/kg administered alternate day; type: ADME, organism-based; design: dose 3000 mg/kg; settings: in vivo
Homo sapiens [7] = assay: Hepatotoxicity in TB patients assessed as elevated aspartate aminotransferase level at 40 g/kg; type: toxicity, organism-based; settings: in vivo, 40000 mg/kg
[8] = Cmax in TB patient serum at 500 mg/kg TID; type: ADME, organism-based; design: dose 500 mg/kg; settings: human
Homo sapiens [9] = assay: Pharmacokinetic parameter in TB patient serum assessed as percentage of time the compound persisted above 20 mg/L at 3000 mg/kg administered alternate day; type: ADME, organism-based; design: dose 3000 mg/kg; settings: in vivo
Homo sapiens [10] = assay: Hepatotoxicity in TB patients assessed as elevated aspartate aminotransferase level at 30 g/kg; type: toxicity, organism-based; settings: in vivo, 30000 mg/kg
[11] = AUC (0 to 168 hrs) in TB patient serum at 500 mg/ kg TID; type: ADME, organism-based; design: time < 168 hr, dose 500 mg/ kg; settings: human
Homo sapiens [12] = assay: Pharmacokinetic parameter in TB patient serum assessed as percentage of time the compound persisted above 5 mg/L at 3000 mg/kg administered alternate day; type: ADME, organism-based; design: dose 3000 mg/kg; settings: in vivo
[13] = AUC (0 to 168 hrs) in serum of TB patient at 3000 mg/kg administered alternate day; type: ADME, organism-based; design: time < 168 hr, dose 3000 mg/kg; settings: human
Homo sapiens [14] = assay: Hepatotoxicity in TB patients assessed as jaundice at 3.7 g/kg/day measured after 52 days; type: toxicity, organism-based; settings: in vivo, 3700 mg/kg, 1248 h
Homo sapiens [15] = assay: Pharmacokinetic parameter in TB patient serum assessed as percentage of time the compound persisted above 5 mg/L at 1500 mg/kg daily; type: ADME, organism-based; design: dose 1500 mg/kg; settings: in vivo
[16] = AUC (0 to 168 hrs) in serum of TB patient at 1500 mg/kg daily; type: ADME, organism-based; design: time < 168 hr, dose 1500 mg/kg; settings: human
Homo sapiens [17] = assay: Hepatotoxicity in TB patients assessed as abnormal flocculation at 3.7 g/kg/day measured after 52 days; type: toxicity, organism-based; settings: in vivo, 3700 mg/kg, 1248 h
Homo sapiens [18] = assay: Hepatotoxicity in TB patients assessed as elevated aspartate aminotransferase level at 60 g/kg; type: toxicity, organism-based; settings: in vivo, 60000 mg/kg
Homo sapiens [19] = species: Homo sapiens; assay: Toxicity in TB patients assessed as death; type: organism-based; settings: in vivo
Homo sapiens [20] = species: Homo sapiens; assay: Toxicity in TB patients assessed as arthralgia; type: organism-based; settings: in vivo
[21] = Systemic clearance in TB patient serum at 3000 mg/kg administered alternate day; type: ADME, organism-based; design: dose 3000 mg/kg; settings: human
Homo sapiens [22] = species: Homo sapiens; assay: Pharmacokinetic parameter in TB patient serum assessed as percentage of time the compound persisted above 20 mg/L at 500 mg/ kg TID; type: ADME, organism-based; design: dose 500 mg/ kg; settings: in vivo
[23] = Cmax in TB patient serum at 3000 mg/kg administered alternate day; type: ADME, organism-based; design: dose 3000 mg/kg; settings: human
[24] = Systemic clearance in TB patient serum at 1500 mg/kg daily; type: ADME, organism-based; design: dose 1500 mg/kg; settings: human
[25] = Cmax in TB patient serum at 1500 mg/kg daily; type: ADME, organism-based; design: dose 1500 mg/kg; settings: human
Homo sapiens [26] = assay: Pharmacokinetic parameter in TB patient serum assessed as percentage of time the compound persisted above 10 mg/L at 1500 mg/kg daily; type: ADME, organism-based; design: dose 1500 mg/kg; settings: in vivo
Homo sapiens [27] = assay: Pharmacokinetic parameter in TB patient serum assessed as percentage of time the compound persisted above 20 mg/L at 1500 mg/kg daily; type: ADME, organism-based; design: dose 1500 mg/kg; settings: in vivo

For NC(=O)c1cnccn1 [PYRAZINAMIDE], the Activity (Homo sapiens [1]) was 92%, the Activity (Homo sapiens [2]) was “Non-toxic” and the Activity (Homo sapiens [3]) was 67%. For the same compound, the Activity (Homo sapiens [4]) was “Non-toxic”, the clearance [5] was 68.5 mL/min and the Activity (Homo sapiens [6]) was 35%. The Activity (Homo sapiens [7]) was “Non-toxic”, the Cmax [8] was 20200 ng/mL and the Activity (Homo sapiens [9]) was 23%. The Activity (Homo sapiens [10]) was “Non-toxic”, the AUC at 168 h [11] was 2190 µg·h/mL and the Activity (Homo sapiens [12]) was 48%. The AUC(0-t) at 168 h [13] was 2160 µg·h/mL, the Activity (Homo sapiens [14]) was “Non-toxic” and the Activity (Homo sapiens [15]) was 74%. The AUC at 168 h [16] was 2270 µg·h/mL, the Activity (Homo sapiens [17]) was “Non-toxic” and the Activity (Homo sapiens [18]) was “Non-toxic”. The Activity (Homo sapiens [19]) was “Toxic”, the Activity (Homo sapiens [20]) was “Toxic” and the clearance [21] was 69.3 mL/min. It also gave an Activity (Homo sapiens [22]) of 9%, a Cmax [23] of 67500 ng/mL and a clearance [24] of 66.2 mL/min. It also gave a Cmax [25] of 33800 ng/mL, an Activity (Homo sapiens [26]) of 49% and an Activity (Homo sapiens [27]) of 24%.
